Settings: Liquid; for speed of sound: Pulse-echo method; for mass density: Vibrating tube method

CCCCCCCCCCC [undecane]
Settings | mass density, 1000 kPa [kg/m3] | mass density, 20000 kPa [kg/m3] | mass density, 40000 kPa [kg/m3] | mass density, 60000 kPa [kg/m3] | speed of sound, 1000 kPa [m/s] | speed of sound, 20000 kPa [m/s] | speed of sound, 40000 kPa [m/s] | speed of sound, 60000 kPa [m/s] | speed of sound, 80000 kPa [m/s] | speed of sound, 100000 kPa [m/s]
278 K | 752.64 | 764.19 | 775.36 | 785.14 | 1355.2 | 1455.4 | 1547.8 | 1629.3 | 1702.6 | 1770.5
288 K | 745.18 | 757.29 | 768.82 | 778.9 | 1315 | 1419.1 | 1514.4 | 1598 | 1673 | 1742.4
298 K | 737.58 | 750.5 | 762.53 | 773.01 | 1275.2 | 1383.2 | 1481.3 | 1566.9 | 1643.4 | 1714.4
308 K | 729.86 | 743.8 | 756.47 | 767.47 | 1236.3 | 1348.6 | 1449.8 | 1537.3 | 1615.1 | 1687.2
318 K | 722.02 | 737.19 | 750.63 | 762.26 | 1197.9 | 1314.1 | 1418.4 | 1508.1 | 1587.7 | 1661.4

— the NIST ThermoML archive (doi:10.1016/j.jct.2012.10.025)
